Test results taken from patent publication US5674867A, “Indolocarbazole derivatives and therapeutic method for stimulating megakaicyocyte production” (Kyowa Hakko Kogyo Co., Ltd., priority 1992, dated 1997).

Test system: bone marrow cells (megakaryocyte colony formation)
Experiment: Megakaryocyte colony formation-stimulating activity (ACHE-stained colonies, bone marrow cells with IL-3)
Assay type: cell-based, BALB/c mouse
Settings: with IL-3 100 U/ml, 7 days
Description: An eight-weeks-old BALB/c mouse was killed. Its femurs and cervical vertebrae were taken out, and both end sections thereof were cut off. Bone marrow cells were collected from the pieces cut off from the femurs and cervical vertebrae using a syringe containing IMDM (430-2200EA prepared by Gibco Co.), and then blown into a test tube. The test tube was allowed to stand for 5 minutes, and the supernatant was collected with a pipet. To a reaction mixture comprising the bone marrow cells (50,000 cells), bovine serum albumin (2%: A4508 made by Sigma Co.), transferrin (600 μg/ml 652202 made by Boehringer Mannheim Co.), IL-3 (100 U/ml), cholesterol (16 μg/ml: 036-0641 made by Wako Co.) and agar (0.6%: 0142-02 made by Difco Laboratories) were separately added the test compounds at various concentrations, and 1 ml each of the mixtures was put into a 35-mm dish (Lux Co.), followed by incubation under the conditions of 37° C., 5% CO2 and a humidity of 95% or more for 7 days. Separately, IL-3 alone was added to the bone marrow cells to prepare a control, whereas a positive control was prepared by adding 200 U/ml IL-6 to the above-mentioned reaction mixture. After the incubation was completed, the agar was dried over a filter paper (1001-055 made by Whatman Co.) and then fixed with 2.5% glutaraldehyde, followed by acetylcholinesterase staining (ACHE staining).
The ACHE staining was carried out by the method described below.
ACHE staining: To each sample was added a solution comprising 0.67 mg/ml acetylthiocholine iodide, 2.94 mg/ml sodium citrate, 7.5 mg/ml copper (II) sulfate and 1.65 mg/ml potassium ferricyanide, and the mixture was allowed to stand at room temperature in the dark for 4-6 hours.
A group of 4 or more megakaryocytes which were stained reddish brown was regarded as a colony, and the number of colonies per dish was calculated using a microscope. The results are shown in Table 2 as relative values to the control.

SMILES | Relative value (megakaryocyte colonies, control = 100) (0.1 nM) | Relative value (megakaryocyte colonies, control = 100) (0.01 nM) | Relative value (megakaryocyte colonies, control = 100) (1 nM, 10080 min, 0.001 µM) | Relative value (megakaryocyte colonies, control = 100) (1 nM) | Relative value (megakaryocyte colonies, control = 100) (100 nM) | Relative value (megakaryocyte colonies, control = 100) (10 nM)
CNC1CC2OC(C)(C1OC)n1c3ccccc3c3c4c(c5c6ccccc6n2c5c31)C(=O)N(C)C4O (single isomer, unassigned) [Compound I-23a] | 114 |  |  |  |  | 
CNC1CC2OC(C)(C1OC)n1c3ccccc3c3c4c(c5c6ccccc6n2c5c31)C(=O)N(C)C4O (single isomer, unassigned) [Compound I-23b] | 114 |  |  |  |  | 
CNC1CC2OC(C)(C1OC)n1c3ccccc3c3c4c(c5c6ccccc6n2c5c31)C(=O)N(C)C4 (centres unmarked) [Compound I-2] |  | 125 | 168 |  |  | 
CNC1CC2OC(C)(C1OC)n1c3ccccc3c3c4c(c5c6ccccc6n2c5c31)C(=O)N(N)C4=O (centres unmarked) [Compound I-3] |  | 98.8 |  | 127 |  | 
COC(=O)C1(O)CC2OC1(C)n1c3ccccc3c3c4c(c5c6ccccc6n2c5c31)C(=O)NC4O (centres unmarked) [Compound I-4] |  | 94.3 |  | 115 |  | 
CCCCCCOC(=O)C1(O)CC2OC1(C)n1c3ccccc3c3c4c(c5c6ccccc6n2c5c31)C(=O)NC4 (centres unmarked) [Compound I-5] |  | 112 |  | 104 | 103 | 
CCCOc1ccc2c(c1)c1c3c(c4c5ccccc5n5c4c1n2C1CC(O)(C(=O)OC)C5(C)O1)CNC3=O (centres unmarked) [Compound I-6] |  | 112 |  | 132 | 117 | 
COC(=O)C1(OC)CC2OC1(C)n1c3ccccc3c3c4c(c5c6ccccc6n2c5c31)C(=O)N(C)C4 (centres unmarked) [Compound I-7] |  | 93 |  | 101 | 108 | 
COC(=O)C1(OC(C)=O)CC2OC1(C)n1c3ccccc3c3c4c(c5c6ccccc6n2c5c31)C(=O)N(C(C)=O)C4 (centres unmarked) [Compound I-8] |  | 95.6 |  | 118 | 89.6 | 
CNC1CC2OC(C)(C1OC)n1c3ccccc3c3c4c(c5c6ccccc6n2c5c31)C(=O)N(C)C4=O (centres unmarked) [Compound I-9] | 135 |  |  | 117 |  | 92.2
COC(=O)C1(O)CC2OC1(C)n1c3ccccc3c3c4c(c5c6cc(S(=O)(=O)N7CCN(C)CC7)ccc6n2c5c31)C(=O)NC4 (centres unmarked) [Compound I-11] | 88.4 |  |  | 95 |  | 116
CCCOc1ccc2c(c1)c1c3c(c4c5cc(OCCC)ccc5n5c4c1n2C1CC(O)(C(=O)OC)C5(C)O1)CNC3=O (centres unmarked) [Compound I-12] | 133 |  |  | 113 |  | 122
COC(=O)C1(O)CC2OC1(C)n1c3ccccc3c3c4c(c5c6ccccc6n2c5c31)C(=O)N(Cc1ccccc1)C4=O (centres unmarked) [Compound I-13] | 100 |  |  | 113 |  | 125
CCSC1NC(=O)c2c1c1c3ccccc3n3c1c1c2c2ccccc2n1C1CC(O)(C(=O)OC)C3(C)O1 (centres unmarked) [Compound I-14] | 118 |  |  | 115 |  | 116
CCCCOC(=O)C1(O)CC2OC1(C)n1c3ccccc3c3c4c(c5c6ccccc6n2c5c31)C(=O)NC4 (centres unmarked) [Compound I-15] | 120 |  |  | 121 |  | 132
O=C1NCc2c1c1c3ccccc3[nH]c1c1[nH]c3ccccc3c21 [Compound I-16] | 118 |  |  | 88.3 |  | 100
COC1C(N(C)C(=O)OCc2ccccc2)CC2OC1(C)n1c3ccccc3c3c4c(c5c6ccccc6n2c5c31)C(=O)N(C)C4 (centres unmarked) [Compound I-18] | 118 |  |  | 88 |  | 84

SMILES | Relative value (megakaryocyte colonies, control = 100) (0.1 nM) | Relative value (megakaryocyte colonies, control = 100) (0.01 nM) | Relative value (megakaryocyte colonies, control = 100) (1 nM, 10080 min, 0.001 µM) | Relative value (megakaryocyte colonies, control = 100) (1 nM) | Relative value (megakaryocyte colonies, control = 100) (100 nM) | Relative value (megakaryocyte colonies, control = 100) (10 nM)
CCCN1Cc2c(c3c4ccccc4n4c3c3c2c2ccccc2n3C2(C)OC4CC(NC)C2OC)C1=O (centres unmarked) [Compound I-19] | 118 |  |  | 94 |  | 156
CCCCCCN1Cc2c(c3c4ccccc4n4c3c3c2c2ccccc2n3C2(C)OC4CC(NC)C2OC)C1=O (centres unmarked) [Compound I-20] | 107 |  |  | 131 |  | 144
CNC1CC2OC(C)(C1OC)n1c3ccccc3c3c4c(c5c6ccccc6n2c5c31)C(=O)N(Cc1ccccc1)C4 (centres unmarked) [Compound I-21] | 95 |  |  | 105 |  | 97
CNC1CC2OC(C)(C1OC)n1c3ccccc3c3c4c(c5c6ccccc6n2c5c31)C(=O)N(C)C4 (centres unmarked) [Compound I-22] | 116 |  | 120 |  |  | 100
CCCN(C)C1CC2OC(C)(C1OC)n1c3ccccc3c3c4c(c5c6ccccc6n2c5c31)C(=O)N(C)C4 (centres unmarked) [Compound I-24] | 88 |  |  | 87 |  | 109
CCCCCCN(C)C1CC2OC(C)(C1OC)n1c3ccccc3c3c4c(c5c6ccccc6n2c5c31)C(=O)NC4 (centres unmarked) [Compound I-27] | 76 |  |  | 109 |  | 97
COC1C(N(C)C(C)=O)CC2OC1(C)n1c3ccccc3c3c4c(c5c6ccccc6n2c5c31)C(=O)NC4 (centres unmarked) [Compound I-28] | 89 |  |  | 101 |  | 95
CNC1CC2OC(C)(C1OC)n1c3ccccc3c3c4c(c5c6cc(Br)ccc6n2c5c31)C(=O)NC4 (centres unmarked) [Compound I-29] | 90 |  |  | 113 |  | 112
COC(=O)C1(OC)CC2OC1(C)n1c3ccccc3c3c4c(c5c6ccccc6n2c5c31)C(=O)NC4 (centres unmarked) [Compound I-36] | 130 |  |  | 172 |  | 173
COC(=O)C1(OC(C)=O)CC2OC1(C)n1c3ccccc3c3c4c(c5c6cc(C(C)=O)ccc6n2c5c31)C(=O)N(C(C)=O)C4 (centres unmarked) [Compound I-37] | 82 |  |  | 124 |  | 114
CCCOc1ccc2c(c1)c1c3c(c4c5ccccc5n5c4c1n2C1CC(OC)(C(=O)OC)C5(C)O1)CN(C)C3=O (centres unmarked) [Compound I-38] | 112 |  |  | 111 |  | 136
COCOC1(C(=O)OC)CC2OC1(C)n1c3ccccc3c3c4c(c5c6ccccc6n2c5c31)C(=O)NC4 (centres unmarked) [Compound I-39] | 123 |  |  | 109 |  | 92
CCCOC(=O)C1(O)CC2OC1(C)n1c3ccccc3c3c4c(c5c6ccccc6n2c5c31)C(=O)NC4 (centres unmarked) [Compound I-42] | 91 |  |  | 107 |  | 122
CCCCOC(=O)C1(O)CC2OC1(C)n1c3ccccc3c3c4c(c5c6ccccc6n2c5c31)C(=O)NC4=O (centres unmarked) [Compound I-43] | 81 |  |  | 118 |  | 87
CCCN1C(=O)c2c(c3c4ccccc4n4c3c3c2c2ccccc2n3C2CC(O)(C(=O)OC)C4(C)O2)C1=O (centres unmarked) [Compound I-44] | 126 |  |  | 70 |  | 118
CC(C)OC(=O)C1(O)CC2OC1(C)n1c3ccccc3c3c4c(c5c6ccccc6n2c5c31)C(=O)NC4 (centres unmarked) [Compound I-45] | 103 |  |  | 143 |  | 100
